Experimental findings from PMC3639963, “A New Class of Small Molecule Inhibitor of BMP Signaling” (PLoS ONE, 2013) are described below.

The term inhibition denotes the drop in the measured response relative to a control, in per cent.

Holding throughout (experiment): Nanosyn kinase profiling
Format in all cases: biochemical
Holding throughout (conditions): read-out: Percentage inhibition; for inhibition at 0.1 µM: 0.1 µM inhibitor; for inhibition at 1 µM: 1 µM inhibitor

The target in one experiment is T1, PKCβ1 (Homo sapiens, UniProt P05771).
T1 construct: purchased Nanosyn (enzymatic panel); SGC in-house recombinant human kinases (DSF panel); Invitrogen (ALK1-6)
T1 sequence (P05771 whole entry): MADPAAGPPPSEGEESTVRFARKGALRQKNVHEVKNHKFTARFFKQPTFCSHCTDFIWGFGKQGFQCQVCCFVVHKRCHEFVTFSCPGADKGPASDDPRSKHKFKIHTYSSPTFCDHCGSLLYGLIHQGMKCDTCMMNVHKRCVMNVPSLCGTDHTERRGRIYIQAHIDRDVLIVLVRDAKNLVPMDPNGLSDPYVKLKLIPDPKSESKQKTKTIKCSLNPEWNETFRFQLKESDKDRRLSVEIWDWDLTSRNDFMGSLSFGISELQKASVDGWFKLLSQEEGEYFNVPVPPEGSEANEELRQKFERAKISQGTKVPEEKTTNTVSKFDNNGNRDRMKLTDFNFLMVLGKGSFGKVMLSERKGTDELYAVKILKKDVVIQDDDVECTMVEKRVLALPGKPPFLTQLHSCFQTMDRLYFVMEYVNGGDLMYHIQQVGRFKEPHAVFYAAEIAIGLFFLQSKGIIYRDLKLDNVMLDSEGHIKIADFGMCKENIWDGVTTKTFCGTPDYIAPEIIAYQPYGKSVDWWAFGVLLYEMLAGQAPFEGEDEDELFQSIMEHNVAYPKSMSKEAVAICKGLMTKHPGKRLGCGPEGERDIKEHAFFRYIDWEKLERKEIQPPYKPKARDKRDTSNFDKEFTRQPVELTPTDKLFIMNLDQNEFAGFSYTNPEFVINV
An outline of the steps: (§1)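 Percent inhibition of each kinase was measured with the inhibitor at 0.1 µM and at 1 µM, as part of a 200-kinase human selectivity panel.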

In a further experiment the target is T2, EPHB4 (Homo sapiens, UniProt P54760).
T2 construct: purchased Nanosyn (enzymatic panel); SGC in-house recombinant human kinases (DSF panel); Invitrogen (ALK1-6)
T2 sequence (P54760 16-987): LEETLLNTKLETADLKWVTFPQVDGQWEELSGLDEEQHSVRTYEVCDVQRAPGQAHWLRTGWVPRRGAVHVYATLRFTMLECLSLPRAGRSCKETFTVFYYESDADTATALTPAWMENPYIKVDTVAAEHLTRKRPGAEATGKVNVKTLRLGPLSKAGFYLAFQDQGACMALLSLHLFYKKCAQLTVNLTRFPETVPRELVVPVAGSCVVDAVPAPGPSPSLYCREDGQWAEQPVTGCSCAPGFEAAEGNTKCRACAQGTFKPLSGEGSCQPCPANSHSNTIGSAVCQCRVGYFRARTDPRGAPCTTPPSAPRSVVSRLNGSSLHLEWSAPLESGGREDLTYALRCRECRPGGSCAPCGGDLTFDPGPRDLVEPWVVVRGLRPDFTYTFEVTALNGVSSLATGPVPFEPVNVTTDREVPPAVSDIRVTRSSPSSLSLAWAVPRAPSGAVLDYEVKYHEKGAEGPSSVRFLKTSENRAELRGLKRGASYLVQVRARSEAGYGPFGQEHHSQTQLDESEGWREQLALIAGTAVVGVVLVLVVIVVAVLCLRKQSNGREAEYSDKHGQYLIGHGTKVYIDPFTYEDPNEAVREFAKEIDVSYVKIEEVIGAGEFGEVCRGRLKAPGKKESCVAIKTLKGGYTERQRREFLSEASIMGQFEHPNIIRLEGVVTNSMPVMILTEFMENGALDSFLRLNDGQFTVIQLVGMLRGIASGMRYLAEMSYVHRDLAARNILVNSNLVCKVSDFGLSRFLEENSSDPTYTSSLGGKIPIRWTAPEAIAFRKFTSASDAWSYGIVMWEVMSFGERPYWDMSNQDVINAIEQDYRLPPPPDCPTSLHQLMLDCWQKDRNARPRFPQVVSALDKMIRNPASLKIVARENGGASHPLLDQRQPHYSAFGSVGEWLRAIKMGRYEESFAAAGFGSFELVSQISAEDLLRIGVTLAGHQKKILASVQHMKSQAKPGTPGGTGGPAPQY
The method in brief:
as §1

For the next experiment, the target named is T3, MAPK3 (Homo sapiens, UniProt P27361).
T3 construct: purchased Nanosyn (enzymatic panel); SGC in-house recombinant human kinases (DSF panel); Invitrogen (ALK1-6)
T3 sequence (P27361 whole entry): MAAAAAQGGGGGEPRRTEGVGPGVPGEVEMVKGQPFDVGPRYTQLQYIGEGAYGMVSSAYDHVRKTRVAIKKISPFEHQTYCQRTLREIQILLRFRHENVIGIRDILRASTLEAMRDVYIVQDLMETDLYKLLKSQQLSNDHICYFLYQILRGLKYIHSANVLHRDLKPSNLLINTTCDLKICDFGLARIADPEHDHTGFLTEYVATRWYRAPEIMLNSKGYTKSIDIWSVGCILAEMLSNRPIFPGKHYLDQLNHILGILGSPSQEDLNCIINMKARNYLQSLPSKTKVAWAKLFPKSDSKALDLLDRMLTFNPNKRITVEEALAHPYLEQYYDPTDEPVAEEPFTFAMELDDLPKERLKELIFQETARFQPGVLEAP
An outline of the steps:
as §1

The next experiment has as its target T4, IKK-α (Homo sapiens, UniProt O15111).
T4 construct: purchased Nanosyn (enzymatic panel); SGC in-house recombinant human kinases (DSF panel); Invitrogen (ALK1-6)
T4 sequence (O15111 1-745): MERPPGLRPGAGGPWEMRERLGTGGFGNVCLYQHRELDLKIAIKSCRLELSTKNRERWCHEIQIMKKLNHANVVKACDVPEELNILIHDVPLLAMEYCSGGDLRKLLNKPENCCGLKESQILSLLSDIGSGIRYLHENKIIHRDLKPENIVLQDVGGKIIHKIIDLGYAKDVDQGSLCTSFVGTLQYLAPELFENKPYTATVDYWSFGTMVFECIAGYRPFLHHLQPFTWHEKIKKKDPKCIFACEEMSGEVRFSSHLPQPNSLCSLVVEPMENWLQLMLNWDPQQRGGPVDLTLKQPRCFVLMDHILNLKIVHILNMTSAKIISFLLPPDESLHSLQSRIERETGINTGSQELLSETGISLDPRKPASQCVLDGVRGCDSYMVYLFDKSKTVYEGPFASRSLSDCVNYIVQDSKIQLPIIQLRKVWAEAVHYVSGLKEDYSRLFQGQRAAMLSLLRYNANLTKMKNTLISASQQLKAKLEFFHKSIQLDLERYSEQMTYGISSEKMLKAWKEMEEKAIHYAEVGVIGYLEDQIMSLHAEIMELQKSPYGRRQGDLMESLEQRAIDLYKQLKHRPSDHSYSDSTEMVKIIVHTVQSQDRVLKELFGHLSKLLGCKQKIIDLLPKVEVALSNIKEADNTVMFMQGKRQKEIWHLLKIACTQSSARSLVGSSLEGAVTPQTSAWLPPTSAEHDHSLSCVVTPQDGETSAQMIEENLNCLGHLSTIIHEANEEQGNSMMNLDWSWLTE
An outline of the steps: as §1

The target of the next experiment is T5, ZAP70 (Homo sapiens, UniProt P43403).
T5 construct: purchased Nanosyn (enzymatic panel); SGC in-house recombinant human kinases (DSF panel); Invitrogen (ALK1-6)
T5 sequence (P43403 1-619): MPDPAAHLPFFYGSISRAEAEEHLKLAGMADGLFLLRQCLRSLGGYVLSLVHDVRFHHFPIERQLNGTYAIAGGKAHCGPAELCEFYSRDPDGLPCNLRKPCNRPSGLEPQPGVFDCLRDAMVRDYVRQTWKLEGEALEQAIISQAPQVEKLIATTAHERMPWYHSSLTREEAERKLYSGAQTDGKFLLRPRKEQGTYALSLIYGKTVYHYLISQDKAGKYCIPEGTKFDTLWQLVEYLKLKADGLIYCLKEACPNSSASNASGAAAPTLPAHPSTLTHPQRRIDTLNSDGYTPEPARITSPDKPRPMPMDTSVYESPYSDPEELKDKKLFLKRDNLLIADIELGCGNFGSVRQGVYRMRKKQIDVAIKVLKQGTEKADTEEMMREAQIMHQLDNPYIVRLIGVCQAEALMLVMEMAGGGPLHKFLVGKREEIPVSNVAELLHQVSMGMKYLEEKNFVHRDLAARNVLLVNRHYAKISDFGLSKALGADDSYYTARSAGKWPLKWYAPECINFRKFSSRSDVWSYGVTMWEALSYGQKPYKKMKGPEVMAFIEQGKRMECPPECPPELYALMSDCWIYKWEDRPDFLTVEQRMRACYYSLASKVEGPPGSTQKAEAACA
The method in brief: as §1

The structures appear in SMILES notation.

As to `COc1cc(-c2cc(-c3cccc(O)c3)cnc2N)cc(OC)c1OC` [K02288, 3-[6-amino-5-(3,4,5-trimethoxy-phenyl)-pyridin-3-yl]-phenol], the inhibition at 0.1 µM is -1% at PKCβ1; 0% on EPHB4; 0% at MAPK3; 7.4% at IKK-α; -2% at ZAP70. Further, the inhibition at 1 µM was 0.7% at PKCβ1; 5.9% at EPHB4; -1% on MAPK3; 2.7% at IKK-α; 1% at ZAP70.
On to `c1ccc2c(-c3cnn4cc(-c5ccc(N6CCNCC6)cc5)cnc34)ccnc2c1` [LDN-193189], for which the inhibition at 0.1 µM at PKCβ1 is -2%; at EPHB4, -1%; on MAPK3 it was 1.9%; at IKK-α it was 3%; on ZAP70, 4.7%. The inhibition at 1 µM was 0.2% on PKCβ1; 6.6% at EPHB4; -2% at MAPK3; -2% at IKK-α; 1% at ZAP70.
